Each structure is given as a SMILES string.

The test deals with T1, Y1 (Homo sapiens, UniProt P25929).
T1 sequence (P25929 1-384): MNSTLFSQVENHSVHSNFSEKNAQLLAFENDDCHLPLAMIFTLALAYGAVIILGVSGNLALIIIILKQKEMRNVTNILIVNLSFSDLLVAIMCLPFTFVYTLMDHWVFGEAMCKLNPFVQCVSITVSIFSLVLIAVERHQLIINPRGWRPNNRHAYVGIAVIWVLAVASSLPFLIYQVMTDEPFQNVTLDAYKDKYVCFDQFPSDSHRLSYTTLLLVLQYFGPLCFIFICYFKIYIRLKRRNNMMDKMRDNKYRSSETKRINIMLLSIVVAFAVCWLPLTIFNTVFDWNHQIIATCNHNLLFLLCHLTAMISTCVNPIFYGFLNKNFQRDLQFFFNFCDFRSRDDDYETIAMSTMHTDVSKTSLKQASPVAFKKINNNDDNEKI
Kind of test: Endogenous NPY response of host Bowes melanoma cells (low levels of Y1 responses). The settings on record: 10 uM; human Bowes melanoma cells (HMCB).

Turning to `NC(N)=NCCC[C@@H](NC(=O)C(c1ccccc1)c1ccccc1)C(=O)NCc1ccc(O)cc1` [BIBP3226], the “block of the endogenous NPY response” value is given as “completely blocks”.
